Biological target: T1, human PTHR1 receptor (Homo sapiens, UniProt Q03431)
T1 construct: purchased Eurofins HTS030M
T1 sequence (Q03431 27-593): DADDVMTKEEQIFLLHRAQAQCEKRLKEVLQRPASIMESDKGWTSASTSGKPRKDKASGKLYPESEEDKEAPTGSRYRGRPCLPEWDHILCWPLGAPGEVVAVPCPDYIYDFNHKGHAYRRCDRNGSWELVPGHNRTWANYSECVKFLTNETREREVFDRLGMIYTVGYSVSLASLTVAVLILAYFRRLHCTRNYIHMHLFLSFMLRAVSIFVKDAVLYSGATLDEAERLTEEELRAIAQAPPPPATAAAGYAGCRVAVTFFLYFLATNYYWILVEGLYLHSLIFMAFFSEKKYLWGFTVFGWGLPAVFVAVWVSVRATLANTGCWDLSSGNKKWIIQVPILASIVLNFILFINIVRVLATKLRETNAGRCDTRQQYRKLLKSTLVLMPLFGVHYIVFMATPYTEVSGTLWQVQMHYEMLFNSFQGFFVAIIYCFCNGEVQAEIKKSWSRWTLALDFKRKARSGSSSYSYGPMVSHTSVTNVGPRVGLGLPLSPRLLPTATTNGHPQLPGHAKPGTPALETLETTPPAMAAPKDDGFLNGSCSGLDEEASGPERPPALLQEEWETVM
Experiment: Competitive antagonist binding assay for hPTH-R1 (radioactive competition binding, SPA beads)
Conditions: human PTHR1 membranes, [125I]-[Nle8,18,Tyr34]-PTH(1-34) 0.2 nM, 90 minutes at room temperature; read-out: hPTHR1 Ki
How it was run: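 Human PTHR1 membranes on SPA beads incubated 90 min at room temperature with compound (typically 0-10,000 nM final) and 0.2 nM [125I]-[Nle8,18,Tyr34]-PTH(1-34) in HEPES buffer with MgCl2, CaCl2, BSA, Triton X-100 and protease inhibitors, pH 7.4. Scintillation signal read; Ki values derived.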

Row | Structure (SMILES) | Ki
1 | CCN1C(=O)N(c2c(F)cc(NCCN[C@@H](CC(C)C)C(=O)O)cc2F)c2cc(C#N)ccc2-c2cc(Cl)cnc21 [1-240, (2S)-2-({2-[(4-{4-chloro-13-cyano-8-ethyl-9-oxo-6,8,10-triazatricyclo[l9.4.0.0^2,7]pentadeca-1(11),2(7),3,5,12,14-hexaen-10-yl}-3,5-difluorophenyl)amino]ethyl}amino)-4-methylpentanoic acid] | < 100 nM
2 | CC(C)N1C(=O)N(c2c(F)cc(NCCNCCO)cc2F)c2cc(Cl)cc(F)c2-c2cc(F)cnc21 [1-114, 13-chloro-10-[2,6-difluoro-4-({2-[(2-hydroxyethyl)amino]ethyl}amino)phenyl]-4,15-difluoro-8-(propan-2-yl)-6,8,10-triazatricyclo[9.4.0.0^2,7]pentadeca-1(11),2(7),3,5,12,14-hexaen-9-one] | < 100 nM
3 | CC(C)N1C(=O)N(c2c(F)cc(N3CC[C@@H](N)C3)cc2F)c2cc(C#N)cc(F)c2-c2cc(F)cnc21 [1-212, 10-{4-[(3R)-3-aminopyrrolidin-1-yl]-2,6-difluorophenyl}-4,15-difluoro-9-oxo-8-(propan-2-yl)-6,8,10-triazatricyclo[9.4.0.0^2,7]pentadeca-1(15),2(7),3,5,11,13-hexaene-13-carbonitrile] | < 100 nM
4 | CCN1C(=O)N(c2c(F)cc(NCCNCC(N)CO)cc2F)c2cc(C#N)ccc2-c2cc(Cl)cnc21 (stereo not shown) [1-225, 10-[4-({2-[(2-amino-3-hydroxypropyl)amino]ethyl}amino)-2,6-difluorophenyl]-4-chloro-8-ethyl-9-oxo-6,8,10-triazatricyclo[9.4.0.0^2,7]pentadeca-1(11),2(7),3,5,12,14-hexaene-13-carbonitrile] | < 100 nM
5 | CCN1C(=O)N(c2c(F)cc(NCCN[C@@H]3CC[C@@H]3O)cc2F)c2cc(C#N)ccc2-c2cc(Cl)cnc21 [1-177, 4-chloro-10-{2,6-difluoro-4-[(2-{[(1R,2S)-2-hydroxycyclobutyl]amino}ethyl)amino]phenyl}-8-ethyl-9-oxo-6,8,10-triazatricyclo[9.4.0.0^2,7]pentadeca-1(11),2(7),3,5,12,14-hexaene-13-carbonitrile] | < 100 nM
6 | O=C1N(CC(F)(F)F)c2ncc(Cl)cc2-c2ccc(Cl)cc2N1c1c(F)cc(NCCNCCO)cc1F [1-48, 4,13-dichloro-10-[2,6-difluoro-4-({2-[(2-hydroxyethyl)amino]ethyl}amino)phenyl]-8-(2,2,2-trifluoroethyl)-6,8,10-triazatricyclo[9.4.0.0^2,7]pentadeca-1(11),2(7),3,5,12,14-hexaen-9-one] | < 100 nM
7 | CCN1C(=O)N(c2c(F)cc(NCCNCCC(N)=O)cc2F)c2cc(C#N)ccc2-c2cc(Cl)cnc21 [1-161, 3-({2-[(4-{4-chloro-13-cyano-8-ethyl-9-oxo-6,8,10-triazatricyclo[9.4.0.0^2,7]pentadeca-1(11),2(7),3,5,12,14-hexaen-10-yl}-3,5-difluorophenyl)amino]ethyl}amino)propanamide] | < 100 nM

Reference: patent US20230159532A1, “PARATHYROID HORMONE (PTH) RECEPTOR ANTAGONISTS AND USES THEREOF” (Crinetics Pharmaceuticals, Inc., priority 2021, published 2023)
